Measured values: article PMC11245370, “3-Position Biaryl Endochin-like Quinolones with Enhanced Antimalarial Performance” (ACS Infectious Diseases, 2024)
Several values for one entry are separate records, joined by “and”; a condition that tells them apart may be missing. Equal values may be shown once. Read-outs that look alike come from different tables or passages of the source. Each block holds one compound with its values, some of them ahead of it.

How the values were obtained:
[1] = system: P. falciparum drug-sensitive D6 strain; test: SYBR Green I antiplasmodial assay, D6 strain; assay type: cell-based; settings: Plasmodium falciparum, D6, 72 h, read-out: P. falciparum IC50 values, D6
Protocol: (§1) All of this information is stored in a database with information relating to chemical structure, physical chemical properties, cross resistance patterns, mammalian cell cytotoxicity, enzyme inhibitor profiles, and synthesis details. Pharmacological data and in vivo efficacy data are also stored in the database for molecules of particular interest. […] We synthesized the compound in an initial batch size of about 800 mg as described above. […] Fluorescence readings were captured with a fluorescence plate reader and processed by nonlinear regression analysis using the GraphPad Prism software to provide IC50 values for each determination. Stock solutions were freshly prepared daily in DMSO in glass vials.
(§2) Laboratory strains of P. falciparum were cultured in human erythrocytes by standard methods. The parasites were grown in culture medium with fresh human erythrocytes maintained at 2% hematocrit at 37 °C in low-oxygen conditions (5% O2, 5% CO2, 90% N2). […] Cultures were maintained at less than 10% parasitemia by transfer of infected cells to fresh erythrocytes and culture medium every 3 or 4 days.
(§3) SYBR green I assay. In vitro antiplasmodial activity was assessed using a published SYBR Green I fluorescence-based method.[20] The drugs were added to 96-well plates using twofold serial dilutions in complete medium. […] Asynchronous P. falciparum parasites were diluted with uninfected erythrocytes and added to the wells to give a final culture volume of 100 μL at 2% hematocrit and 0.2% parasitemia. […] The parasites were then lysed by adding 100 μL of SYBR green I lysis buffer containing 0.2 μL/ml SYBR green I dye (10,000×) in 20 mM Tris (pH 7.5), 5 mM EDTA, 0.008% (wt/vol) saponin, and 0.08% (v/v) Triton X-100. The plates were incubated at room temperature for an hour in the dark. […] If the IC50 value fell outside of the initially tested range, then the range was adjusted up or down, and the assay was repeated twice.

[2] = system: P. falciparum multidrug-resistant Dd2 strain; test: microbe, parasite or virus in culture; assay type: cell-based; settings: Plasmodium falciparum, DD2, 72 h, read-out: P. falciparum IC50 values, Dd2
Protocol: as §1, §2, §3

[3] = system: P. falciparum atovaquone-resistant clinical isolate Tm90-C2B; test: SYBR Green I antiplasmodial assay, Tm90-C2B; assay type: cell-based; settings: Plasmodium falciparum, TM90, 72 h, read-out: P. falciparum IC50 values, Tm90-C2B
Protocol: as §1, §2, §3

[4] = Metabolic stability in liver microsomes, mouse; assay type: in vitro ADME; settings: pooled mouse liver microsomes, pH 7.4; for half-life at 1 μM: mouse liver microsomes 0.5 mg/mL, NADPH, 37 °C, 45 min
Protocol: (§4) […]. Samples were taken over the interval of 45 min and analyzed by LC–MS/MS for the presence of test compound. Ketanserin served as an internal standard for the metabolic rate of a drug with known intermediate stability. […].
(§5) The drug was incubated at 37 °C and 1 μM concentration in murine liver microsomes (Corning) for 45 min at a protein concentration of 0.5 mg/mL in potassium phosphate buffer at pH 7.4 containing 1.0 mM EDTA. The metabolic reaction was initiated by addition of NADPH and quenched with ice-cold acetonitrile at 0, 5, 15, 25, and 45 min.

[5] = Metabolic stability in liver microsomes, rat; assay type: in vitro ADME; settings: for half-life at 1 μM: rat, pH 7.4
[6] = Metabolic stability in liver microsomes, human; assay type: in vitro ADME; settings: for half-life at 1 μM: human, pH 7.4
Protocol: as §4, §5

[7] = system: P. yoelii blood-stage infection; settings: for blood stage in vivo efficacy, 4 day Peters test results, NRD (nonrecrudescence dose) / blood stage in vivo efficacy, 4 day Peters test results, ED50 / blood stage in vivo efficacy, 4 day Peters test results, ED90: mice; for blood stage in vivo efficacy, 4 day Peters test results, NRD (nonrecrudescence dose): oral gavage days 1-4, followed to day 30; for blood stage in vivo efficacy, 4 day Peters test results, ED50 / blood stage in vivo efficacy, 4 day Peters test results, ED90: oral gavage days 1-4, parasitemia day 5, prodrugs dosed on molar equivalency to parent
Protocol: (§6) On day 5, a drop of blood was taken from the tail, and a blood smear was prepared, fixed with methanol, and stained with Giemsa. The operator then examined the stained smear microscopically to determine percent parasitemia. […] In this model, animals were inoculated exactly as for the 4 day test on day 0; however, drug was administered only on day 1, whereas smears were made on day 5 and again weekly thereafter for animals that remained aparasitemic. Animals that remained aparasitemic on day 30 were scored as cures.
The P. yoelii 4 day test monitors suppression of patent infection in female CF1 mice. The test began with the inoculation (iv) of parasitized erythrocytes (3.5 × 10^4P. yoelli) (from a donor animal) on the first day of the experiment (D0). […] Initially, the 3-biaryl-ELQs were tested at doses of 0.0025, 0.005, 0.01, 0.03, 0.1, 0.3, 1.0, and 10 mg/kg/day, including a vehicle-only (PEG400) control. After completion of drug treatment, a blood sample was collected (by pricking the tail vein) for determination of parasite burden beginning on the day after the final dose (D5). Percent parasitemia was assessed by direct microscopic analysis of Giemsa-stained blood smears. […] Animals with observable parasitemia following the experiment were euthanized; animals cleared of parasites from the bloodstream were observed daily with assessment of parasitemia performed weekly until day 30, at which point the animals were scored as cured of infection. […] Nonlinear regression analysis was used for objective determination of ED50’s and ED90’s from the accumulated data as well as the nonrecrudescence dose (NRD). The 4 day test protocol was reviewed and approved by the local IACUC board at the Portland VA Medical Center. Experiments were performed with four mice per group to ensure statistical accuracy.

[8] = Pharmacokinetics after single dose of ELQ-598; assay type: in vivo; settings: for k el / Tmax / AUC(0-inf) / Cmax / half-life: mouse plasma; for bioavailability: read-out: F (oral bioavailability); for Vd / CL/F / Vdarea/F / AUCratio (molar AUC ELQ-598/AUC ELQ-596): mouse; for Vd: read-out: Vdss
Protocol: Animals had free access to food and water during the study. Following drug administration, the animals were manually restrained at the designated time points, and 100 μL of blood was withdrawn from the facial vein for semiserial sampling into heparinized tubes. Blood samples were placed on ice and centrifuged (2000g, 5 min, 4 °C) to obtain plasma. The plasma was mixed with 10% formic acid (FA) in water [plasma/10% FA (v/v = 10:1)]. […] At the outset of the study, 18 animals were randomly separated into two different groups (po and iv) of nine animals each. Blood samples were taken from three animals at each time point such that the same group of the animals was sampled at […] throughout the experiment for both po and iv arms. […] Dichlofenac was used as an internal standard.
MW is the molecular weight. The terminal elimination rate constant kel was estimated by linear least-squares regression analysis of the terminal log-linear portion of the plasma concentration–time curves by the software.

[9] = target: human liver cytochrome bc1 complex (Homo sapiens, UniProt P00156); test: Human cytochrome bc1 assay (liver mitochondrial preparation)
[10] = HepG2 cytotoxicity / mitochondrial toxicity (TiterGlo ATP, galactose medium); settings: human
Protocol: HepG2 was routinely cultured in DMEM containing 10% fetal calf serum and 100 IU/mL penicillin and 100 μg/mL streptomycin (complete medium). For studies to investigate the potential for mitochondrial toxicity by selected 3-biaryl-ELQs, the medium contained galactose rather than glucose to force the cells to produce ATP through oxidative phosphorylation, which in turn makes them sensitive to mitochondrial toxicants.[36] […] After this period, the culture medium was removed, and the cells were shifted to galactose-containing medium with test drugs at concentrations ranging from 0 to 10 μM. Drug dilutions were prepared from DMSO stocks into galactose-containing medium. […] After incubation, the contents of each well were removed, and 25 μL of TiterGlo II reagent mix containing luciferase, detergent, and luciferin was added to each well along with 25 μL of culture medium. […] At this point, the plates were read on a luminometer (SpectraMax iD3 iD5Multi-Mode Microplate Reader), and the data were processed to yield the percent decrease in ATP production relative to no-drug control values. These values reflect the potential damage caused by mitochondrial toxicants due to reduced intracellular ATP levels caused by interference with the human mitochondrial electron transport chain. Assays were set up in triplicate.

[11] = system: P. falciparum ELQ-300-resistant D1 clone; test: microbe, parasite or virus in culture; assay type: cell-based; settings: Plasmodium falciparum, 72 h, read-out: P. falciparum IC50 values, D1
[12] = system: P. yoelii blood-stage infection; test: Single-dose cure of blood-stage murine malaria; assay type: in vivo, Plasmodium yoelii
Protocol: as §6
The effectiveness of selected 3-biaryl ELQs and prodrugs was assessed vs the blood-stage infection for single-dose cures. Mice were infected iv with 3.5 × 10^4P. yoelii infected RBCs as described for the 4 day test above. Drug administration occurred on the day after inoculation (day 1). Test agents were dissolved in PEG-400 and administered ig once. On the fifth day, blood films were prepared, and % parasitemia was assessed. Animals remaining parasite-free for 30 days after drug administration were considered cured. The initial dosing range was 0.25, 0.5, 1, 3, and 10 mg/kg, including a control. Experiments were performed with four mice per group to ensure statistical accuracy. The reported parameter for these studies is the lowest single dose that provides a cure to all four animals in the group.

[13] = system: P. yoelii sporozoites (liver stage); test: Causal prophylaxis, sporozoite challenge in mice; settings: 1.0 mg/kg single oral dose 1 h after 10,000 P. yoelii sporozoites iv; followed 30 days
Protocol: For this study, mice were inoculated with 10,000 P. yoelii sporozoites via tail vein injections, and drug was administered by gavage an hour later and only once. We monitored for the presence of blood-stage parasites as a measure of liver-stage infection.
Mice were inoculated with 10,000 sporozoites via tail vein injection of CF1 mice treated with or without drug (dissolved in PEG400) 1 h after inoculation. […] Additional monitoring for blood-stage infection was continued for a 30 day period to confirm true causal prophylaxis against P. yoelii challenge. […] Testing involved the use of four animals per group for statistical accuracy. […] A minimum of 5000 red blood cells were examined to establish blood-stage infection. Blood smears were fixed with methanol, stained with Giemsa, and viewed under oil immersion at 1000× magnification under standard light microscopy.

[14] = male, CD1, mouse, plasma, po, 10 mg/kg, single ELQ-598 dose 10 mg/kg PO (PEG400), read-out: Tmax
[15] = male, CD1, mouse, plasma, po, 10 mg/kg
[16] = male, CD1, plasma, single ELQ-598 dose 0.3 mg/kg IV
[17] = male, CD1, plasma, single ELQ-598 dose 10 mg/kg PO, read-out: CL/F (converted)
[18] = male, CD1, single ELQ-598 dose 0.3 mg/kg IV
[19] = male, CD1, single ELQ-598 dose 0.3 mg/kg IV, elimination
[20] = male, CD1, single ELQ-598 dose 10 mg/kg PO
[21] = male, CD1, single ELQ-598 dose 10 mg/kg PO (PEG400)
[22] = male, CD1, single ELQ-598 dose 10 mg/kg PO, apparent elimination
[23] = single ELQ-598 dose 0.3 mg/kg IV
[24] = single ELQ-598 dose 10 mg/kg PO
[25] = pH 7.4, predicted intrinsic clearance

SMILES: COc1cc2[nH]c(C)c(-c3ccc(-c4ccc(OC(F)(F)F)cc4)cc3)c(=O)c2cc1Cl [ELQ-596, 6-Chloro-7-methoxy-2-methyl-3-(4′-(trifluoromethoxy)-[1,1′-biphenyl]-4-yl)quinolin-4(1H)-one]
IC50 [1]: 1.4 nM
IC50 [2]: 1.6 nM
IC50 [3]: 0.7 nM
half-life at 1 μM [4]: > 66.7 h
half-life at 1 μM [5]: > 66.7 h
half-life at 1 μM [6]: > 66.7 h
blood stage in vivo efficacy, 4 day Peters test results, NRD (nonrecrudescence dose) [7]: 0.3 mg/kg/day
blood stage in vivo efficacy, 4 day Peters test results, ED50 [7]: 0.01 mg/kg/day
blood stage in vivo efficacy, 4 day Peters test results, ED90 [7]: 0.021 mg/kg/day
k el ([8]; male, CD1, in vivo, single ELQ-598 dose 0.3 mg/kg IV): 6.94e-06 s⁻¹
k el ([8]; male, CD1, in vivo, single ELQ-598 dose 10 mg/kg PO (PEG400)): 4.17e-06 s⁻¹
Tmax ([8]; male, CD1, mouse, plasma, iv, 0.3 mg/kg, single ELQ-598 dose 0.3 mg/kg IV, read-out: Tmax): 4 h
Tmax [8, 14]: 4 h
bioavailability [8, 15]: 73%
Vd [8, 16]: 0.78 L/kg
CL/F [8, 17]: 0.017 L/h/kg
AUC(0-inf) [8, 18]: 12.2 µg·h/mL
Cmax [8, 18]: 0.303 µg/mL
half-life [8, 19]: 27.4 h
AUC(0-inf) [8, 20]: 484 µg·h/mL
Cmax [8, 20]: 14.5 µM
Cmax [8, 21]: 6.68 µg/mL
half-life [8, 22]: 45.7 h
Tmax ([8]; single ELQ-598 dose 0.3 mg/kg IV, 0.3 mg/kg): 2 h
CL/F [8, 23]: 0.020 L/h/kg
Vdarea/F [8, 23]: 0.81 L/kg
Vdarea/F [8, 24]: 1.11 L/kg
EC50 [9]: > 10000 nM
EC50 at 24 h [10]: > 10000 nM
IC50 at 24 h [10]: > 10000 nM

SMILES: CCOC(=O)OCOc1c(-c2ccc(-c3ccc(OC(F)(F)F)cc3)cc2)c(C)nc2cc(OC)c(Cl)cc12 [ELQ-598, (((6-Chloro-7-methoxy-2-methyl-3-(4′-(trifluoromethoxy)-[1,1′-biphenyl]-4-yl)quinolin-4-yl)oxy)methylethyl carbonate]
IC50 [1]: 1.5 nM
IC50 [2]: 4.4 nM
IC50 [3]: 0.8 nM
IC50 [11]: 734 nM
appearance, behavioral, or weight changes after dosing ([7]; in vivo): no appearance, behavioral, or weight changes observed
blood stage in vivo efficacy, 4 day Peters test results, NRD (nonrecrudescence dose) [7]: 0.12 mg/kg/day
blood stage in vivo efficacy, 4 day Peters test results, ED50 [7]: 0.005 mg/kg/day
blood stage in vivo efficacy, 4 day Peters test results, ED90 [7]: 0.0065 mg/kg/day
animals protected by single dose ([12]; 0.25 mg/kg single oral dose, four mice): two of four
effectiveness as single dose cure agent compared to ELQ-331 ([12]; blood-stage P. yoelii in mice): ~10 times
blood stage in vivo efficacy, single dose cure ([12]; lowest single oral dose curing all four mice, day 30): 0.3 mg/kg/day
lowest fully protective single dose cure ([12]; single oral dose day 1, aparasitemic day 30, four mice, parent-drug equivalent): 0.3 mg/kg
Tmax [8, 14]: ≤ 2 h
bioavailability [8, 15]: 0.26%
Vd [8, 16]: 0.09 L/kg
CL/F [8, 17]: 23.9 L/h/kg
AUC(0-inf) [8, 18]: 0.757 µg·h/mL
k el [8, 18]: 0.000258 s⁻¹
half-life [8, 19]: 0.74 h
AUC(0-inf) [8, 20]: 0.419 µg·h/mL
Cmax [8, 21]: 0.0794 µg/mL
k el [8, 21]: 3.89e-05 s⁻¹
half-life [8, 22]: 5 h
AUCratio (molar AUC ELQ-598/AUC ELQ-596) [8, 23]: 5.1%
CL/F [8, 23]: 0.40 L/h/kg
Vdarea/F [8, 23]: 0.42 L/kg
AUCratio (molar AUC ELQ-598/AUC ELQ-596) [8, 24]: 0.07%
Vdarea/F [8, 24]: 173.5 L/kg
liver stage in vivo, # mice protected/total [13]: complete protection and 4/4
IC50 at 24 h ([10]; HepG2 cells): > 10000 nM

half-life at 1 μM [4]: 0.318 h
CLint scaled at 1 μM ([4]; mouse liver microsomes, predicted intrinsic clearance): 17.1 L/h/kg
CLint scaled at 1 μM [5, 25]: 10.3 L/h/kg
half-life at 1 μM [5]: 0.24 h
half-life at 1 μM [6]: 0.455 h
CLint scaled at 1 μM [6, 25]: 3.82 L/h/kg
SMILES: O=C(c1ccc(F)cc1)C1CCN(CCn2c(=O)[nH]c3ccccc3c2=O)CC1 [ketanserin]
